Assays:
JAK1 = JAK1 (Homo sapiens (Human), UniProt P23458); test: JAK1 inhibitory activity, mobility shift assay, 1 mM ATP; type: biochemical; conditions: for IC50: 1 mM ATP; for JAK2/JAK1 Multiple selectivity: ratio of JAK2 IC50 to JAK1 IC50, 1 mM ATP
Description: (§1) The JAK1 inhibitory activity and the JAK2 inhibitory activity of the amide compounds provided in the above examples were tested by the method below.
(§2) Specific steps are described below. • 1. A 1× Kinase buffer was formulated. • 2. Concentration gradients of the compound were formulated: a test compound with an initial concentration of 10000 nM (JAK1) or 30000 nM (JAK2) was diluted in a 384-well plate to a 100% DMSO solution with a 100-fold final concentration, wherein the compound was diluted by a fold of 3 to 10 concentrations. 250 nL of the compound with the 100-fold final concentration was transferred with a dispenser Echo 550 to the target plate. • 3. A kinase solution with a 2.5-fold final concentration was prepared with the 1× Kinase buffer. • 4. […] The plate was centrifuged at 1000 rpm for 30 s, shaken and uniformly mixed, and incubated for 10 min at room temperature. • 6. A mixed solution of ATP (the final concentration of ATP=1 mM) and Kinase substrate with a 5/3-fold final concentration was formulated with the 1× Kinase buffer. • 7. 15 μL of the mixed solution of ATP and the substrate with the 5/3-fold final concentration was added to initiate the reaction. • 8. The 384-well plate was centrifuged at 1000 rpm for 30 s, shaken and uniformly mixed, and incubated for respective times at room temperature. • 9. The kinase reaction was stopped by adding 30 μL of a detection termination solution, and the plate was centrifuged at 1000 rpm for 30 s and shaken and uniformly mixed. • 10. The conversion rate was read with Caliper EZ Reader and the half maximal inhibitory concentration (IC50) was calculated.

JAK2 = JAK2 (Homo sapiens (Human), UniProt O60674); test: JAK2 inhibitory activity, mobility shift assay, 1 mM ATP; type: biochemical
Sequence of JAK2 (O60674 826-1132): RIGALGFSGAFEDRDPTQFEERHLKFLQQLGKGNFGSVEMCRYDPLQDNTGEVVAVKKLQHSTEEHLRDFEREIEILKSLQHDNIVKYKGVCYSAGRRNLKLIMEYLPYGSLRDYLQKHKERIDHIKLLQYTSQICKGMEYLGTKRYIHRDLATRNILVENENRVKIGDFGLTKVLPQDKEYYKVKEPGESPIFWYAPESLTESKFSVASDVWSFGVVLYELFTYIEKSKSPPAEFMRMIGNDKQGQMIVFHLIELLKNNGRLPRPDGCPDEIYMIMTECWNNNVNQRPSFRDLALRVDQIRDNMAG
Description: as §1, §2

[1] = system: IFNα-induced pSTAT3 (JAK1/TYK2 signaling pathway); test: Mouse whole blood assay, inhibition of IFNα-induced pSTAT3; type: cell-based; conditions: C57BL/6J mouse blood, IFNα 20000 IU/mL
Description: Cytokine IFNα can induce STAT3 phosphorylation (pSTAT3) through the JAK1/TYK2 signaling pathway. […] IFNα used was Recombinant mouse IFNα (Miltenyi #130-093-131), the pSTAT3 antibody used was Alexa Fluor 488 anti-STAT3 Phospho (Tyr705) Antibody (Biolegend #651106), and the CD3 antibody used was Brilliant Violet 421 anti-mouse CD3 Antibody (Biolegend #100228). The cytokine dilution buffer was PBS+0.1% BSA, which was filtered and stored at […]. The FACS buffer was PBS+0.2% BSA+1 mM EDTA. Specific steps are described below. • 1. C57BL/6J mouse blood was added to a 96-well plate, with 90 μL per well. • 2. Each well was added with 5 μL of the compound ([…]), uniformly mixed and incubated at 37° C. for 60 min in an incubator. • 3. Each well was added with 5 μL of 20×IFNα (with a working concentration of 20000 IU/mL) as the stimulation factor, uniformly mixed and incubated at 37° C. for 30 min. • 4. Blood was transferred to a 96-deep-well plate, and each well was added with 1 mL of Lyse fix buffer (1×), uniformly mixed and incubated at 37° C. for 10 min. • 5. The plate was centrifuged at 600 g for 5 min and the supernatant was discarded. 1 mL of PBS was added to each well and centrifuged at 600 g for 5 min and the supernatant was discarded, which were repeated twice. Each well was added with 100 μL of the anti-mCD3 antibody (diluted by a fold of 80 with the cytokine dilution buffer), uniformly mixed and incubated at 4° C. for 30 min. • 6. 1 mL of PBS was added to each well and centrifuged at 600 g for 5 min and the supernatant was discarded, which were repeated twice. Each well was added with 1000 μL of Perm III, uniformly mixed and incubated at 4° C. for 30 min. • 7. The plate was centrifuged at 600 g for 5 min and the supernatant was discarded. 1 mL of PBS was added to each well and centrifuged at 600 g for 5 min and the supernatant was discarded, which were repeated twice. • 8. Each well was added with 100 μL of the anti-pSTAT3 antibody (diluted by a fold of 50 with the FACS buffer), uniformly mixed and incubated at 25° C. for 40 min. • 9. 1 mL of the FACS buffer was added to each well and centrifuged at 600 g for 5 min and the supernatant was discarded. 200 μL of the FACS buffer was added to each well and resuspended. All samples were transferred to a 96-well tip-bottom plate and uploaded. • 10. Data were collected and analyzed.

Sequence of JAK1 (P23458 850-1154): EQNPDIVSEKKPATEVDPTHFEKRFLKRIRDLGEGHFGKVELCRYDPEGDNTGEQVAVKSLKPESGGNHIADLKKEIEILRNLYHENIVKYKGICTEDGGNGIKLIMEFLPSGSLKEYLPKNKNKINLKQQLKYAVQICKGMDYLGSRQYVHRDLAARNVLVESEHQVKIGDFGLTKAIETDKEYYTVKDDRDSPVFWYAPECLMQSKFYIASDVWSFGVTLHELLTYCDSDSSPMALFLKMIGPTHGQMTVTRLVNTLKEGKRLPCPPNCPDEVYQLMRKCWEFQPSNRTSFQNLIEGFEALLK

Row | IC50 (JAK1; Table 7) | IC50 (JAK1; Table 8) | JAK2/JAK1 Multiple selectivity (JAK1) | IC50 (JAK2; Table 7) | IC50 (JAK2; Table 8) | IC50 [1] | SMILES
1 | 56 nM | 56 nM | 72 | 4020 nM | 4020 nM | 173 nM | COc1nn(C)cc1Nc1nccc(-c2c[nH]c3c(NC(=O)[C@@H](C)N4CCN(C)CC4)cccc23)n1 [AZD4205, reference compound]
2 | 33 nM | 33 nM | 156 | 5160 nM | 5160 nM | 127 nM | COc1nn(C)cc1Nc1ncc(C)c(-c2c[nH]c3c(NC(=O)[C@H]4C[C@H](F)CN4[C@@H]4CCN(C)C4)cccc23)n1 [Example 30, (2R,3′R,4S)-4-fluoro-N-(3-(2-((3-methoxy-1-methyl-1H-pyrazol-4-yl)amino)-5-methylpyrimidin-4-yl)-1H-indol-7-yl)-1′-methyl-[1,3′-bipyrrolidine]-2-carboxamide]
3 |  |  |  |  |  | 204 nM | CCCS(=O)(=O)N[C@H]1C[C@@H](N(C)c2ncnc3[nH]ccc23)C1 [abrocitinib, reference compound]
4 | 368 nM |  |  | 15500 nM |  |  | COc1nn(C)cc1Nc1nccc(-c2c[nH]c3c(NC(=O)[C@H]4C[C@H](F)CN4[C@H]4CCNC4)cccc23)n1 (single isomer, unassigned) [Example 19]
5 | 137 nM |  |  | 1850 nM |  |  | CCS(=O)(=O)N1CCC[C@H]1C(=O)Nc1cccc2c(-c3nc(Nc4cn(C)nc4OC)ncc3F)c[nH]c12 [Example 2, (S)-N-(3-(5-fluoro-2-((3-methoxy-1-methyl-1H-pyrazol-4-yl)amino)pyrimidin-4-yl)-1H-indol-7-yl)-1-(ethanesulfonyl)pyrrolidine-2-carboxamide]
6 | 60 nM |  |  | 4400 nM |  |  | COc1nn(C)cc1Nc1ncc(F)c(-c2c[nH]c3c(NC(=O)[C@H]4CC(F)(F)CN4[C@H]4CCN(C)C4)cccc23)n1 [Example 27, (2R,3′S)-4,4-difluoro-N-(3-(5-fluoro-2-((3-methoxy-1-methyl-1H-pyrazol-4-yl)amino)pyrimidin-4-yl)-1H-indol-7-yl)-1′-methyl-[1,3′-bipyrrolidine]-2-carboxamide]
7 | 34 nM |  |  | 5280 nM |  |  | COc1nn(C)cc1Nc1ncc(F)c(-c2c[nH]c3c(NC(=O)[C@H]4C[C@H](F)CN4[C@@H]4CCN(C)C4)cccc23)n1 [Example 38, (2R,3′R,4S)-4-fluoro-N-(3-(5-fluoro-2-((3-methoxy-1-methyl-1H-pyrazol-4-yl)amino)pyrimidin-4-yl)-1H-indol-7-yl)-1′-methyl-[1,3′-bipyrrolidine]-2-carboxamide]
8 | 101 nM |  |  | 14500 nM |  |  | COc1nn(C)cc1Nc1ncc(C)c(-c2c[nH]c3c(NC(=O)[C@H]4C[C@H](OC)CN4C4CCN(C)CC4)cccc23)n1 [Example 13, (2R,4S)-4-methoxy-N-(3-(2-((3-methoxy-1-methyl-1H-pyrazol-4-yl)amino)-5-methylpyrimidin-4-yl)-1H-indol-7-yl)-1-(1-methylpiperidin-4-yl)pyrrolidine-2-carboxamide]
9 | 120 nM |  |  | 21500 nM |  |  | COc1nn(C)cc1Nc1nccc(-c2c[nH]c3c(NC(=O)[C@H]4C[C@H](F)CN4[C@@H]4CCN(C)C4)cccc23)n1 (single isomer, unassigned) [Example 20]
10 | 161 nM |  |  | 2510 nM |  |  | COc1nn(C)cc1Nc1ncc(C)c(-c2c[nH]c3c(NC(=O)[C@H]4CC(F)(F)CN4[C@@H]4CCOC4)cccc23)n1 [Example 34, (R)-4,4-difluoro-N-(3-(2-((3-methoxy-1-methyl-1H-pyrazol-4-yl)amino)-5-methylpyrimidin-4-yl)-1H-indol-7-yl)-1-((R)-tetrahydrofuran-3-yl)pyrrolidine-2-carboxamide]
11 | 108 nM |  |  | 10200 nM |  |  | COc1nn(C)cc1Nc1nccc(-c2c[nH]c3c(NC(=O)[C@H]4C[C@H](F)CN4[C@@H]4CCNC4)cccc23)n1 (single isomer, unassigned) [Example 18]
12 | 40 nM |  |  | 14600 nM |  |  | COc1nn(C)cc1Nc1ncc(F)c(-c2c[nH]c3c(NC(=O)[C@H]4CCCN4[C@@H]4CCN(C)C4)cccc23)n1 [Example 24, (2R,3′R)-N-(3-(5-fluoro-2-((3-methoxy-1-methyl-1H-pyrazol-4-yl)amino)pyrimidin-4-yl)-1H-indol-7-yl)-1′-methyl-[1,3′-bipyrrolidine]-2-carboxamide]
13 | 216 nM |  |  | 10800 nM |  |  | COc1nn(C)cc1Nc1nccc(-c2c[nH]c3c(NC(=O)[C@H]4CC(F)(F)CN4[C@H]4CCN(C)C4)cccc23)n1 [Example 37, (2R,3′S)-4,4-difluoro-N-(3-(2-((3-methoxy-1-methyl-1H-pyrazol-4-yl)amino)pyrimidin-4-yl)-1H-indol-7-yl)-1′-methyl-[1,3′-bipyrrolidine]-2-carboxamide]
14 | 40 nM |  |  | 16300 nM |  |  | COc1nn(C)cc1Nc1ncc(C)c(-c2c[nH]c3c(NC(=O)[C@H]4CCCN4[C@@H]4CCN(C)C4)cccc23)n1 [Example 28, (2R,3′R)-N-(3-(2-((3-methoxy-1-methyl-1H-pyrazol-4-yl)amino)-5-methylpyrimidin-4-yl)-1H-indol-7-yl)-1′-methyl-[1,3′-bipyrrolidine]-2-carboxamide]
15 | 53 nM |  |  | 652 nM |  |  | COc1nn(C)cc1Nc1ncc(Cl)c(-c2c[nH]c3c(NC(=O)[C@@H]4CCCN4S(C)(=O)=O)cccc23)n1 [Example 4, (S)-N-(3-(5-chloro-2-((3-methoxy-1-methyl-1H-pyrazol-4-yl)amino)pyrimidin-4-yl)-1H-indol-7-yl)-1-(methanesulfonyl)pyrrolidine-2-carboxamide]
16 | 91 nM |  |  | 12000 nM |  |  | COc1nn(C)cc1Nc1nccc(-c2c[nH]c3c(NC(=O)[C@H]4CC(F)(F)CN4[C@@H]4CCN(C)C4)cccc23)n1 [Example 36, (2R,3′R)-4,4-difluoro-N-(3-(2-((3-methoxy-1-methyl-1H-pyrazol-4-yl)amino)pyrimidin-4-yl)-1H-indol-7-yl)-1′-methyl-[1,3′-bipyrrolidine]-2-carboxamide]
17 | 59 nM |  |  | 5370 nM |  |  | COc1nn(C)cc1Nc1ncc(F)c(-c2c[nH]c3c(NC(=O)[C@H]4CCCN4[C@H]4CCNC4)cccc23)n1 [Example 23, (2R,3′S)-N-(3-(5-fluoro-2-((3-methoxy-1-methyl-1H-pyrazol-4-yl)amino)pyrimidin-4-yl)-1H-indol-7-yl)-[1,3′-bipyrrolidine]-2-carboxamide]
18 | 262 nM |  |  | > 30000 nM |  |  | COc1nn(C)cc1Nc1nccc(-c2c[nH]c3c(NC(=O)[C@H]4C[C@H](F)CN4[C@H]4CCN(C)C4)cccc23)n1 (single isomer, unassigned) [Example 21]
19 | 70 nM |  |  | 2210 nM |  |  | COc1nn(C)cc1Nc1ncc(C)c(-c2c[nH]c3c(NC(=O)[C@@H]4CCCN4S(C)(=O)=O)cccc23)n1 [Example 3, (S)-N-(3-(2-((3-methoxy-1-methyl-1H-pyrazol-4-yl)amino)-5-methylpyrimidin-4-yl)-1H-indol-7-yl)-1-(methanesulfonyl)pyrrolidine-2-carboxamide]

Source: US20230416237A1, “AMIDE COMPOUND, PHARMACEUTICAL COMPOSITION AND USE THEREOF” (SHENZHEN BO LI JIAN MEDICINE CO., LTD., priority 2020, published 2023)
